Assay results: patent US20050026189A1, “Microbial operons” (priority 2003, published 2005)

Experiments:
[1] = test system: E. coli transcribing IPTG-inducible antisense clones; experiment: Cell-based assay: antibiotic sensitivity of E. coli transcribing antisense to ribosomal protein genes or to genes not involved in protein synthesis (FIGS. 8, 9); set-up: species or system Escherichia coli
Source text: The effectiveness of the above cell-based assay was validated using constructs transcribing antisense RNA to the proliferation required Escherichia coli genes rplL, rplJ, and rplW encoding ribosomal proteins L7/L12, L10 and L23 respectively. These proteins are essential components of the protein synthesis apparatus of the cell and as such are required for proliferation. These constructs were used to test the effect of antisense transcription on cell sensitivity to antibiotics known to bind to the ribosome and thereby inhibit protein synthesis. Constructs transcribing antisense RNA to several other genes (elaD, visC, yohH, and atpE/B), the products of which are not involved in protein synthesis were used for comparison. […]
The cell populations containing vectors producing AS-elaD or AS-rplW were exposed to a range of IPTG concentrations in liquid medium to obtain the growth inhibitory dose curve for each clone (FIG. 7). First, seed cultures were grown to a particular turbidity measured by the optical density (OD) of the growth solution. […] The cells were grown for up to 15 hours and the extent of growth was determined by measuring the optical density of the cultures at 600 nm. […]

[2] = test system: E. coli transcribing antisense RNA to rplL and rplJ (AS-rplL/J); experiment: microbe, parasite or virus in culture; assay type: cell-based; conditions: for Fold Increase in Sensitivity: IC50 without IPTG versus IC50 with 400 μM IPTG; for Sensitivity Increased?: statistically significant decrease in the IC50 value in the presence of inducer (IPTG)
Method: The effectiveness of the above assays was validated using proliferation-required genes from E. coli which were identified using procedures similar to those described above. Antibiotics of various chemical classes and modes of action were purchased from Sigma Chemicals (St. Louis, Mo.). Stock solutions were prepared by dissolving each antibiotic in an appropriate aqueous solution based on information provided by the manufacturer. The final working solution of each antibiotic contained no more than 0.2% (w/v) of any organic solvent. To determine their potency against a bacterial strain engineered for transcription of an antisense comprising a nucleotide sequence complementary to a proliferation-required 50S ribosomal protein, each antibiotic was serially diluted two- or three-fold in growth medium supplemented with the appropriate antibiotic for maintenance of the antisense construct. At least ten dilutions were prepared for each antibiotic. 25 μL aliquots of each dilution were transferred to discrete wells of a 384-well microplate (the assay plate) using a multi-channel pipette. Quadruplicate wells were used for each dilution of an antibiotic under each treatment condition (plus and minus inducer). Each assay plate contained twenty wells for cell growth controls (growth medium replacing antibiotic), ten wells for each treatment (plus and minus inducer, in this example IPTG). Assay plates were usually divided into the two treatments: half the plate containing induced cells and an appropriate concentrations of inducer (in this example IPTG) to maintain the state of induction, the other half containing non-induced cells in the absence of IPTG.
Cells for the assay were prepared as follows. Bacterial cells containing a construct, from which transcription of antisense nucleic acid comprising a nucleotide sequence complementary to rplL and rplJ (AS-rplL/J), which encode proliferation-required 50S ribosomal subunit proteins, is inducible in the presence of IPTG, were grown into exponential growth (OD600 0.2 to 0.3) and then diluted 1:100 into fresh medium containing either 400 μM or 0 μM inducer (IPTG). These cultures were incubated at 37° C. for 2.5 hr. After a 2.5 hr incubation, induced and non-induced cells were respectively diluted into an assay medium at a final OD600 value of 0.0004. The medium contained an appropriate concentration of the antibiotic for the maintenance of the antisense construct. In addition, the medium used to dilute induced cells was supplemented with 800 μM IPTG so that addition to the assay plate would result in a final IPTG concentration of 400 μM. Induced and non-induced cell suspensions were dispensed (25 μl/well) into the appropriate wells of the assay plate as discussed previously. The plate was then loaded into a plate reader, incubated at constant temperature, and cell growth was monitored in each well by the measurement of light scattering at 595 nm. Growth was monitored every 5 minutes until the cell culture attained a stationary growth phase. For each concentration of antibiotic, a percentage inhibition of growth was calculated at the time point corresponding to mid-exponential growth for the associated control wells (no antibiotic, plus or minus IPTG). For each antibiotic and condition (plus or minus IPTG), a plot of percent inhibition versus log of antibiotic concentration was generated and the IC50 determined.

Row | SMILES | sensitivity to erythromycin ([1]; initial experiments, clones transcribing antisense to protein synthesis genes (L7/L12 & L10, L7/L12 alone, L22, L18, rRNA, Elongation Factor G)) | Fold Increase in Sensitivity [2] [Fold] | Sensitivity Increased? [2] | sensitivity to antibiotics which do not inhibit protein synthesis ([1]; clone transcribing antisense to rplL and rplJ (AS-rplL/J))
1 | CC[C@H]1OC(=O)[C@H](C)[C@@H](O[C@H]2C[C@@](C)(OC)[C@@H](O)[C@H](C)O2)[C@H](C)[C@@H](O[C@@H]2O[C@H](C)C[C@H](N(C)C)[C@H]2O)[C@](C)(O)C[C@@H](C)C(=O)[C@H](C)[C@@H](O)[C@]1(C)O [Erythromycin] | increased sensitivity | 40 | Yes | 
2 | CCn1cc(C(=O)O)c(=O)c2ccc(C)nc21 [Nalidixic acid] |  | 1 | No | does not show increased sensitivity
